{"source": "patent US8175815B2", "about": "“Method for assessing absorption properties of low solubility compounds” (F. Hoffmann-La Roche AG, priority 2006, dated 2012)", "key": {"[1]": {"assay": "Excipient Effect: receiver UV AUC ratio in Double-Sink PAMPA with saturated donor (second embodiment)", "format": "in vitro ADME", "settings": "pH 5.0; receiver AUC with excipient / without excipient", "method": "The compounds are presented as DMSO solutions with a concentration of about 10 mM. They are further diluted in a universal aqueous buffer and adjusted to pH 5.0, 6.2, and 7.4 with 0.5 M NaOH. The background amount of DMSO in the aqueous solution is 0.5% v/v. Most of the compounds are insoluble in water, where they form saturated solutions with precipitation present. The calculated concentration of the compounds in the buffer is about 50 μM, but because of precipitation, the actual concentrations in the aqueous media must be lower than that, and are unknown. Saturated (non-filtered) solutions are transferred to the donor compartment of the PAMPA sandwich pre-loaded with magnetic stirrers. The filter of the PAMPA filter plate (the acceptor compartment of the PAMPA sandwich) is covered with GIT-lipid and filled with acceptor sink buffer (ASB). […]\nThus, it's not surprising that the absorption behavior for this compound at pH 5.0 is governed by the permeability and that the presence of the excipient in the donor compartment decreases the permeability of Butacaine. The second embodiment of the method of the invention allows detection of this behavior without separate measurements of the solubility and permeability constants, but by simple comparison of the compound concentrations (UV absorbance) in the receiver compartments."}, "[2]": {"settings": "PAMPA, 30 min, 50 μM"}, "[3]": {"settings": "PAMPA, pH 5"}, "[4]": {"assay": "Double-Sink PAMPA permeability with and without excipients"}, "[5]": {"assay": "equilibrium solubility-pH, direct-UV microtitre plate (μSOL Evolution) with and without excipients", "settings": "for solubility at 18 h / pKa at 18 h: aqueous universal buffer (pION); for solubility at 18 h: 25 °C, kinetic from dmso stock; for pKa at 18 h: saturated drug suspension, pKa^APP ± SD"}}, "data": [{"smiles": "CCCCN(CCCC)CCCOC(=O)c1ccc(N)cc1", "note": "[butacaine]", "values": [{"measurement": "excipient Effect", "setting": "[1]", "value": "< 1"}, {"measurement": "PABL 0 mM NaTC", "setting": "[2]", "value": 713}, {"measurement": "PABL 3 mM NaTC", "setting": "[2]", "value": 954}, {"measurement": "PABL 15 mM NaTC", "setting": "[2]", "value": 13}, {"measurement": "refined ABL thickness", "setting": "[2]", "value": "exceeding 75 μm"}, {"measurement": "net flux effect due to 1% HP-β-CD", "setting": "[3]", "value": "loses at all pH values"}, {"measurement": "MW*/MW", "setting": "[4]; 3 mM NaTC (second value)", "value": 2}, {"measurement": "MW*/MW", "setting": "[4]; 15 mM NaTC (third value)", "value": 30000}, {"measurement": "MW*/MW", "setting": "[4]; apparent/true molecular weight, 40 μm ABL assumed, 0 mM NaTC (first value)", "value": 4}, {"measurement": "solubility at 18 h", "setting": "[5]; aqueous with cosolvent or surfactant or cyclodextrin", "value": 152, "unit": "µg/mL"}, {"measurement": "solubility at 18 h", "setting": "[5]; pH 5, aqueous buffer", "value": "> 50", "unit": "µM"}, {"measurement": "pKa at 18 h", "setting": "[5]; apparent ionization constant in saturated solution, excipient none", "value": "8.8 ± 0.2"}, {"measurement": "pKa at 18 h", "setting": "[5]; apparent ionization constant, excipient 3 mM NaTC", "value": "8.9 ± 0.2"}, {"measurement": "pKa at 18 h", "setting": "[5]; apparent ionization constant, excipient 15 mM NaTC", "value": "8.5 ± 0.1"}, {"measurement": "pKa at 18 h", "setting": "[5]; apparent ionization constant, excipient 0.1M KCl", "value": "8.3 ± 0.3"}, {"measurement": "pKa at 18 h", "setting": "[5]; apparent ionization constant, excipient 0.2M KCl", "value": "8.6 ± 0.1"}, {"measurement": "pKa at 18 h", "setting": "[5]; apparent ionization constant, excipient 1% HP-b-CD", "value": "8.1 ± 0.1"}, {"measurement": "pKa at 18 h", "setting": "[5]; apparent ionization constant, excipient 1% NMP", "value": "8.5 ± 0.1"}, {"measurement": "pKa at 18 h", "setting": "[5]; apparent ionization constant, excipient 1% PEG400", "value": "8.5 ± 0.1"}, {"measurement": "pKa at 18 h", "setting": "[5]; apparent ionization constant, excipient 1% PG", "value": "8.2 ± 0.1"}, {"measurement": "pKa at 18 h", "setting": "[5]; apparent ionization constant, excipient 5% PEG400", "value": 8.5}, {"measurement": "pKa at 18 h", "setting": "[5]; apparent ionization constant, excipient 5% PG", "value": "8.5 ± 0.2"}, {"measurement": "pKa at 18 h", "setting": "[5]; apparent ionization constant, excipient […] HP-b-CD", "value": "8.5 ± 0.1"}, {"measurement": "pKa at 18 h", "setting": "[5]; apparent ionization constant, excipient […] NMP", "value": "8.8 ± 0.1"}, {"measurement": "pKa at 18 h", "setting": "[5]; apparent ionization constant, excipient […] PEG400", "value": 8.5}, {"measurement": "pKa at 18 h", "setting": "[5]; apparent ionization constant, excipient […] PG", "value": "8.8 ± 0.1"}, {"measurement": "So ± SD", "setting": "[5]; excipient 3 mM NaTC", "value": "3.1 ± 1.6", "unit": "µg/mL"}, {"measurement": "So^APP ± SD", "setting": "[5]; excipient 3 mM NaTC", "value": "50 ± 10", "unit": "µg/mL"}, {"measurement": "So ± SD", "setting": "[5]; excipient 15 mM NaTC", "value": "2.3 ± 0.4", "unit": "µg/mL"}, {"measurement": "So^APP ± SD", "setting": "[5]; excipient 15 mM NaTC", "value": "96 ± 4", "unit": "µg/mL"}, {"measurement": "So ± SD", "setting": "[5]; excipient 0.1M KCl", "value": "1.3 ± 0.8", "unit": "µg/mL"}, {"measurement": "So^APP ± SD", "setting": "[5]; excipient 0.1M KCl", "value": "83 ± 17", "unit": "µg/mL"}, {"measurement": "So ± SD", "setting": "[5]; excipient 0.2M KCl", "value": "2.5 ± 0.2", "unit": "µg/mL"}, {"measurement": "So^APP ± SD", "setting": "[5]; excipient 0.2M KCl", "value": "78 ± 2", "unit": "µg/mL"}, {"measurement": "So ± SD", "setting": "[5]; excipient 1% HP-b-CD", "value": "1.5 ± 0.4", "unit": "µg/mL"}, {"measurement": "So^APP ± SD", "setting": "[5]; excipient 1% HP-b-CD", "value": "141 ± 7", "unit": "µg/mL"}, {"measurement": "So ± SD", "setting": "[5]; excipient 1% NMP", "value": "1.9 ± 0.5", "unit": "µg/mL"}, {"measurement": "So^APP ± SD", "setting": "[5]; excipient 1% NMP", "value": "71 ± 5", "unit": "µg/mL"}, {"measurement": "So ± SD", "setting": "[5]; excipient 1% PEG400", "value": "2.8 ± 0.4", "unit": "µg/mL"}, {"measurement": "So^APP ± SD", "setting": "[5]; excipient 1% PEG400", "value": "107 ± 2", "unit": "µg/mL"}, {"measurement": "So ± SD", "setting": "[5]; excipient 1% PG", "value": "0.9 ± 0.2", "unit": "µg/mL"}, {"measurement": "So^APP ± SD", "setting": "[5]; excipient 1% PG", "value": "69 ± 5", "unit": "µg/mL"}, {"measurement": "So ± SD", "setting": "[5]; excipient 5% PEG400", "value": 2.8, "unit": "µg/mL"}, {"measurement": "So^APP ± SD", "setting": "[5]; excipient 5% PEG400", "value": 107, "unit": "µg/mL"}, {"measurement": "So ± SD", "setting": "[5]; excipient 5% PG", "value": "1.5 ± 0.5", "unit": "µg/mL"}, {"measurement": "So^APP ± SD", "setting": "[5]; excipient 5% PG", "value": "66 ± 9", "unit": "µg/mL"}, {"measurement": "So ± SD", "setting": "[5]; excipient […] HP-b-CD", "value": "2.0 ± 0.3", "unit": "µg/mL"}, {"measurement": "So^APP ± SD", "setting": "[5]; excipient […] HP-b-CD", "value": "79 ± 4", "unit": "µg/mL"}, {"measurement": "So ± SD", "setting": "[5]; excipient […] NMP", "value": "2.1 ± 0.5", "unit": "µg/mL"}, {"measurement": "So^APP ± SD", "setting": "[5]; excipient […] NMP", "value": "47 ± 3", "unit": "µg/mL"}, {"measurement": "So ± SD", "setting": "[5]; excipient […] PEG400", "value": 3.6, "unit": "µg/mL"}, {"measurement": "So^APP ± SD", "setting": "[5]; excipient […] PEG400", "value": 151, "unit": "µg/mL"}, {"measurement": "So ± SD", "setting": "[5]; excipient […] PG", "value": "2.3 ± 0.5", "unit": "µg/mL"}, {"measurement": "So^APP ± SD", "setting": "[5]; excipient […] PG", "value": "51 ± 4", "unit": "µg/mL"}, {"measurement": "So ± SD", "setting": "[5]; excipient none", "value": "1.9 ± 0.7", "unit": "µg/mL"}, {"measurement": "So^APP ± SD", "setting": "[5]; excipient none", "value": "40 ± 6", "unit": "µg/mL"}, {"measurement": "So^APP ± SD", "setting": "[5]; excipient none, listed as Butacaine", "value": 40, "unit": "µg/mL"}, {"measurement": "salt limit (sdiff 3-4 approximation)", "setting": "[5]; three orders of magnitude above excipient-free intrinsic solubility", "value": 39.8, "unit": "mg/mL"}]}]}
